Among the data in ChEMBL document CHEMBL1201862, “PubChem BioAssay data set” (2004) are IC50 and AC50 values, retold here.

Assay [1] addresses Bifunctional protein GlmU (Mycobacterium tuberculosis, UniProt P9WMN3). Put plainly: Inhibitors of Mycobacterial Glucosamine-1-phosphate acetyl transferase (GlmU). Secondary screen. Further details: species or system Mycobacterium tuberculosis H37Rv.
Assay [2] can be described thus: cytotoxicity toward Colo320 cells – cell-based, CellTiter-Glo luminescence, IC50, dose response (AID 1117334). The class given is functional. Particulars: COLO 320. A general note: ATP-based viability assays read luminescence as a measure of living cells.
Assay [3] can be described thus: cytotoxicity toward HCT116 cells – cell-based, CellTiter-Glo luminescence, IC50, dose response (AID 1117332). Particulars: HCT-116. The class given is functional.
The nature of assay [4]: Concentration-dependent survival of SW480 colon cancer line, luminescence detection with CellTiter-Glo, half-maximal inhibitory concentration (AID 1117338). The class given is functional.
Assay [5] in a line: RKO cell viability reduction, dose response, CellTiter-Glo luminescence (AID 1117322). The class given is functional.
A short description of assay [6]: cytotoxicity toward HT-29 cells – cell-based, CellTiter-Glo luminescence, IC50, dose response (AID 1117330). The class given is functional.
The nature of assay [7]: HCT116 cell viability decrease, GSK3B pretreatment – CellTiter-Glo, IC50, dose response (AID 1117339). The class given is functional. The note with it: HCT-116.
Assay [8] in a line: SNU-C1 cell viability reduction, dose response, CellTiter-Glo luminescence (AID 1117323). The class given is functional, cell-based.
Assay [9] is described as follows: CellTiter-Glo luminescent dose response of DLD-1 viability loss (AID 1117352). The class given is functional.
In assay [10] the target is Mitogen-activated protein kinase 10 (Homo sapiens, UniProt P53779). The assay is described as follows: Dose response biochemical screening assay for inhibitors of c-Jun N-Terminal Kinase 3 (JNK3). [Related pubchem assays: 746 ].
The nature of assay [11]: HepG2 cell cytotoxicity, dose response, cytotoxicity control, cherry-picked samples (AID 1159577). The class given is functional, cell-based.
Assay [12] can be described thus: P. falciparum Dd2 growth inhibitors, dose response, SYBR Green, cherry-picked samples (AID 1159567). The class given is functional, cell-based.
Assay [13] concerns the target Major prion protein (Homo sapiens, UniProt P04156). The class given is functional, cell-based.
Assay [14] in a line: cells.
The nature of assay [15]: P. falciparum ATP4 D1247Y mutant growth inhibitors, dose response, NITD609-resistant line, SYBR Green, dry powder (AID 1159571).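 Further: parasites synchronized at ring stage by sorbitol before testing.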 The class given is functional, cell-based.
A short description of assay [16]: P. falciparum Dd2 growth inhibitors, dose response, SYBR Green, dry powder samples (AID 1159566).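 Further: potency for growth inhibition with lower SYBR green DNA signal.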 The class given is functional, cell-based.
Assay [17] is described as follows: P. falciparum 3D7-ScDHODH growth inhibitors, dose response, SYBR Green, dry powder samples (AID 1159570).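 Further: parasite growth measured after 72 hours of compound exposure.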 The class given is functional, cell-based.
Assay [18] is described as follows: inhibitors of Vif binding to APOBEC3G peptide, primary screen, biochemical, TR-FRET, GST-Vif 1-94, biotin-A3G peptide, dose response retest (AID 1117319).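 Further: TR-FRET signal of purified GST-Vif binding a biotinylated A3G peptide; inhibitors lower the FRET signal by blocking Vif and A3G binding.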 The class given is functional. On the technique in general: TR-FRET usually uses a lanthanide donor and a delayed reading to cut background.

Active and inactive are the calls of the source.

By IC50 is commonly meant the concentration that inhibits the measured activity by half. Take `Nc1nonc1C(=O)N/N=C/c1ccc(-c2cccc(C(=O)O)c2)o1`: the 50% inhibitory concentration (IC50) in assay [1] was 188 µM (active).

On to `O=C(O)CCC(=O)OC[C@@H](NC(=O)C(Cl)Cl)[C@H](O)c1ccc([N+](=O)[O-])cc1` [CHLORAMPHENICOL SODIUM SUCCINATE], for which the IC50 in assay [2], in assay [3], in assay [4], in [5], in assay [6] and in assay [7] was > 20 µM (inactive) throughout. The IC50 in assay [8] and in [9] was > 20 µM (inactive) each time.

As to `CCCN1Cc2cccc(C(=O)NCc3ccccc3)c2C1=O`, in assay [10], the IC50 is listed as 57.8 µM (not active).

What is called AC50 is the concentration giving half of the maximal activity seen. For `CCS(=O)(=O)N1CCCCN2[C@H](C1)[C@@H](c1ccc(C#Cc3ccccc3OC)cc1)[C@@H]2CO`, the AC50 was > 39 µM (inactive) in [11] and 4.67 µM (active) in [12].

Regarding `Cc1nn(C(C)C(=O)O)c(=O)c2c1sc1ccccc12` (stereo not given), the results for the IC50 in assay [13], in assay [10] and in [14] were 8.45 µM (active), > 93.1 µM (not active) and > 138 µM (inactive), respectively.

For `CCCn1cnc2c1c(=O)n(CCCCC(C)=O)c(=O)n2C` [PROPENTOFYLLINE], the IC50 in [2], in [3], in assay [4], in assay [5], in [6] and in assay [7] was > 20 µM (inactive) throughout. Besides, the IC50 in assay [8] and in assay [9] was > 20 µM (inactive) throughout.

Take `COc1ccc(-c2ccccc2[C@H]2[C@@H](C#N)N(C(=O)NC(C)C)[C@H]2CO)cc1`: the half-maximal activity concentration (AC50) is 4.81 µM (active) in assay [15], 2.21 µM (active) in [16], 2.01 µM (active) in [17] and 2.04 µM (active) in [12].

In the case of `CCC1S/C(=C(\C#N)C(=O)NCc2ccco2)N(c2ccc(F)cc2)C1=O` (stereo not given), the IC50 in assay [18] was > 100 µM (active).

For the compound `COc1ccc2c3c(n(C)c2c1)[C@H](CO)NCC31CCN(Cc2ccc(Cl)cc2)CC1`, the AC50 in assay [11] is 17.7 µM (active); in assay [12], 0.504 µM (active).
